Drawing on publication PMC6611794, “Development of a high-throughput strategy for discovery of potent analogues of antibiotic lysocin E” (Nature Communications, 2019), this text covers MIC and ED50 for 3 compounds.

In brackets after ≈: the same amount, converted by molar mass. Where a SMILES comes first, the peptide text is derived from it. Bridges are numbered along the chain shown (N, C = ends). [ ]: non-standard residue; d: D form. The star is where a group is joined. Hexanoyl(3R-OH,5-Me) = CC(C)C[C@@H](O)CC(=O)*; dNMeF = CN[C@H](Cc1ccccc1)C(=O)O

The test system of assay [1] is Listeria monocytogenes 10403S. The assay is classed as cell-based. Conditions: 18 h. Here is the method:
(§1) Antimicrobial activity assay of bead-derived peptides. […]
(§2) plate was added DMSO (1 µL/well). […]
(§3) precipitation of the grown cells was examined.
(§4) Evaluation of antimicrobial spectra of peptides. The MIC assay was performed according to the Clinical and Laboratory Standards Institute protocols. The antimicrobial activities of the peptides were measured […]
(§5) Soy Broth or Müller Hinton Broth agar plates. Bacterial inoculum was prepared by direct suspension of the […]
(§6) and incubated at 37 °C for 18 h. […]
(§7) inhibited growth of bacteria.

A further assay relates to Bacillus cereus JCM20037. The assay is classed as cell-based. Conditions: JCM20037, 18 h. The method, then:
as §1, §2, §3, §4, §5, §6, §7

Assay [2] concerns Bacillus subtilis JCM2499. The assay is classed as cell-based. As to conditions: JCM2499, 18 h. The method, then: as §1, §2, §3, §4, §5, §6, §7
The next assay has as its system S. aureus. More on the design: method as in PMID 25485686. As to conditions: S. aureus-infected mice; cited from earlier work. From the text:
Lysocin E (1, Fig. 1a) was isolated from Lysobacter sp. as a new antibiotic and structurally determined to be a 37-membered depsipeptide (molecular weight = 1618 Da) with an N-methylated amide and ester linkages. The macrocyclic core of 12 residues contains four different non-proteinogenic D-amino acids (D-Arg-2/7, N-Me-D-Phe-5, D-Gln-9, D-Trp-10) and is appended with (R)-3-hydroxy-5-methylhexanamide. […] Screening of the additives ind ...

In the case of `CC(C)C[C@@H](O)CC(=O)N[C@@H]1C(=O)N[C@H](CCCNC(=N)N)C(=O)N[C@@H](C)C(=O)NCC(=O)N(C)[C@H](Cc2ccccc2)C(=O)N[C@@H](CC(C)C)C(=O)N[C@H](CCCNC(=N)N)C(=O)N[C@@H](CCC(=O)O)C(=O)N[C@H](Cc2ccc(O)cc2)C(=O)N[C@H](Cc2c[nH]c3ccccc23)C(=O)N[C@@H](Cc2ccc(O)cc2)C(=O)N[C@@H]([C@@H](C)O)C(=O)O[C@@H]1C` [Peptide A15] ({Hexanoyl(3R-OH,5-Me)}-T[dR]AG[dNMeF]L[dR]E[dY][dW]YT; ester 1-C), the MIC (in general, the lowest concentration found to suppress growth) in assay [1] worked out at 64 µg/mL (≈ 37.9 µM).

Turning to `CC[C@H](C)[C@@H]1NC(=O)[C@@H](Cc2c[nH]c3ccccc23)NC(=O)[C@@H](Cc2ccc(O)cc2)NC(=O)[C@H](CCC(=O)O)NC(=O)[C@@H](CCCNC(=N)N)NC(=O)[C@H](CC(C)C)NC(=O)[C@@H](Cc2ccccc2)N(C)C(=O)CNC(=O)[C@H](CC(=O)O)NC(=O)[C@@H](CCCNC(=N)N)NC(=O)[C@@H](NC(=O)C[C@H](O)CC(C)C)[C@@H](C)OC(=O)[C@H]([C@@H](C)O)NC1=O` [Peptide A17] ({Hexanoyl(3R-OH,5-Me)}-T[dR]DG[dNMeF]L[dR]E[dY][dW]IT; ester 1-C), the MIC (against Bacillus cereus JCM20037; in assay [2]) was 16 µg/mL (≈ 9.52 µM) throughout.

As to `CC[C@H](C)[C@@H]1NC(=O)[C@@H](Cc2c[nH]c3ccccc23)NC(=O)[C@@H](CCC(N)=O)NC(=O)[C@H](CCC(=O)O)NC(=O)[C@@H](CCCNC(=N)N)NC(=O)[C@H](CC(C)C)NC(=O)[C@@H](Cc2ccccc2)N(C)C(=O)CNC(=O)[C@H](CO)NC(=O)[C@@H](CCCNC(=N)N)NC(=O)[C@@H](NC(=O)C[C@H](O)CC(C)C)[C@@H](C)OC(=O)[C@H]([C@@H](C)O)NC1=O` [Peptide 1, Lysocin E] ({Hexanoyl(3R-OH,5-Me)}-T[dR]SG[dNMeF]L[dR]E[dQ][dW]IT; ester 1-C), the ED50 – broadly, the dose at which the effect has come halfway, by size or by number of responders – with S. aureus is given as 0.5 mg/kg.
